In paper PMC4141209 (FEBS Open Bio, 2014):
Read-outs that look alike come from different tables or passages of the source.

Experiments:
[1] = system: TlLhpI; experiment: NADH oxidation at […] nm; assay type: biochemical, Thermococcus litoralis; conditions: NADH 0.15 mM, NH4Cl 700 mM, Tris-HCl pH 8.0, 50 °C
[2] = system: TlLhpI; conditions: NADH 0.15 mM, NH4Cl 700 mM, Tris-HCl pH 8.0, 50 °C
[3] = system: TlLhpI; experiment: NAD+ reduction at […] nm; assay type: biochemical, Thermococcus litoralis
[4] = system: TlLhpI; conditions: NAD+ 1.5 mM, Bis-tris propane pH 10.5, 50 °C
[5] = system: TlLhpI; experiment: NADH oxidation at […] nm; assay type: biochemical, Thermococcus litoralis; conditions: NADH 0.15 mM, potassium phosphate pH 6.0, 50 °C
[6] = system: TlLhpI; conditions: NADH 0.15 mM, potassium phosphate pH 6.0, 50 °C
[7] = NAD+ 1.5 mM, Bis-tris propane pH 10.5, 50 °C
[8] = NAD+-dependent oxidation, 50 °C

Row | SMILES | Km [1] [µM] | Km [3, 7] [µM] | other results
1 | CCC(=O)C(=O)O [2-Oxobutyrate] | 701 ± 20 |  | 
2 | CCCC(=O)C(=O)O [2-Oxovalerate] | 969 ± 93 |  | Km [2]: 1820 ± 140 µM
3 | CC(C)CC(=O)C(=O)O [4-Methyl-2-oxovalerate] | 2520 ± 450 |  | 
4 | CC[C@H](N)C(=O)O [L-2-Aminobutyrate] |  | 6000 ± 290 | 
5 | CCC[C@H](N)C(=O)O [L-2-Aminovalerate] |  | 306 ± 9 | Km [4]: 2130 ± 300 µM
6 | C[C@H](N)C(=O)O [L-Alanine] |  | 18200 ± 5000 | Km [4]: 36900 ± 900 µM
7 | CC(C)C[C@H](N)C(=O)O [L-Leucine] |  | 1320 ± 100 | 
8 | O=C(O)[C@@H]1CCCCN1 [L-Pipecolate] |  |  | Km [3, 8]: 608 ± 115 µM
9 | O=C(O)[C@@H]1CCCN1 [L-Proline] |  | 1120 ± 120 | Km [4]: 444 ± 8 µM
10 | CN[C@@H](C)C(=O)O [N-Methyl-L-alanine] |  |  | Km [3, 8]: 406 ± 44 µM
11 | O=C(O)CC(=O)C(=O)O [Oxalacetate] | 8860 ± 910 |  | 
12 | O=C(O)C1=NCCC1 [Pyr2C, Δ^1-pyrroline-2-carboxylate] |  |  | Km [5]: 944 ± 90 µM; Km [6]: 2770 ± 440 µM
13 | CC(=O)C(=O)O [Pyruvate] | 9370 ± 230 |  | Km [2]: 62000 ± 12200 µM
